How the values were obtained:
[1] = test system: Monochoria vaginalis, Presl.; test: Preemergence weed control under flooded paddy conditions, MOOVA (Monochoria); format: in vivo; conditions: flooded paddy; on herbicidal effect rating, MOOVA: meaning of each grade not given here
[2] = test system: Sagittaria pygmaea, L.; test: Preemergence weed control under flooded paddy conditions, SAGPY (Arrowhead (Pygmaea)); format: in vivo; conditions: flooded paddy; on herbicidal effect rating, SAGPY: meaning of each grade not given here
[3] = test system: Cyperus iria; test: Preemergence weed control under flooded paddy conditions, CYPIR (Rice Flatsedge); format: in vivo; conditions: flooded paddy; on herbicidal effect rating, CYPIR: meaning of each grade not given here
[4] = test system: Oryza sativa, (L.) Tebonnet; test: Rice tolerance to post-transplant applications under flooded paddy conditions (Example 187), ORYSAT (Rice, Tebonnet); on herbicidal effect rating ORYSAT: meaning of each grade not given here
[5] = test system: Cyperus serotinus, Rottb.; test: Preemergence weed control under flooded paddy conditions, CYPSE (Flatsedge); format: in vivo; on herbicidal effect rating, CYPSE: meaning of each grade not given here
[6] = test system: Echinochloa oryzoides (Ard.) Fritsch.; test: Preemergence weed control under flooded paddy conditions, ECHORC (Watergrass (Calif.)); format: in vivo; conditions: flooded paddy; on herbicidal effect rating, ECHORC: meaning of each grade not given here
[7] = Rate 0.0320 kg/ha, preemergence, rated three to four weeks after treatment
[8] = Rate 0.0620 kg/ha, preemergence, rated three to four weeks after treatment
[9] = Rate 0.1250 kg/ha, preemergence, rated three to four weeks after treatment
[10] = Rate 0.2500 kg/ha, preemergence, rated three to four weeks after treatment
[11] = Rate 0.5000 kg/ha, preemergence, rated three to four weeks after treatment
[12] = Rate 0.0320 kg/ha, rated three to four weeks after treatment
[13] = Rate 0.0620 kg/ha, rated three to four weeks after treatment
[14] = Rate 0.1250 kg/ha, rated three to four weeks after treatment
[15] = Rate 0.2500 kg/ha, rated three to four weeks after treatment
[16] = 0.0320 kg/ha, preemergence, rated three to four weeks after treatment
[17] = 0.0620 kg/ha, preemergence, rated three to four weeks after treatment
[18] = 0.1250 kg/ha, preemergence, rated three to four weeks after treatment
[19] = 0.2500 kg/ha, preemergence, rated three to four weeks after treatment
[20] = 0.0320 kg/ha, rated three to four weeks after treatment
[21] = 0.0620 kg/ha, rated three to four weeks after treatment
[22] = 0.1250 kg/ha, rated three to four weeks after treatment
[23] = 0.2500 kg/ha, rated three to four weeks after treatment
[24] = Rate 0.0320 kg/ha, preemergence weeds, rated three to four weeks after treatment
[25] = Rate 0.0620 kg/ha, preemergence weeds, rated three to four weeks after treatment
[26] = Rate 0.1250 kg/ha, preemergence weeds, rated three to four weeks after treatment
[27] = Rate 0.2500 kg/ha, preemergence weeds, rated three to four weeks after treatment
[28] = Rate 0.0620 kg/ha, preemergence, rated 3-4 weeks after treatment
[29] = Rate 0.1250 kg/ha, preemergence, rated 3-4 weeks after treatment
[30] = Rate 0.2500 kg/ha, preemergence, rated 3-4 weeks after treatment
[31] = Rate 0.5000 kg/ha, preemergence, rated 3-4 weeks after treatment

## Cc1nsc2cc(F)c(-n3c(=O)cc(C(F)(F)F)n(C)c3=O)cc12 [Example 366, 2,4(1H,3H)-Pyrimidinedione, 3-(6-fluoro-3-methyl-1,2-benzisothiazol-5-yl)-1-methyl-6-(trifluoromethyl)-]
[1]; [7]
  herbicidal effect rating, MOOVA: 9.0
[1]; [8]
  herbicidal effect rating, MOOVA: 9.0
[1]; [9]
  herbicidal effect rating, MOOVA: 9.0
[1]; [10]
  herbicidal effect rating, MOOVA: 9.0
[1]; [11]
  herbicidal effect rating, MOOVA: 9.0
[2]; [7]
  herbicidal effect rating, SAGPY: 7.0
[2]; [8]
  herbicidal effect rating, SAGPY: 8.0
[2]; [9]
  herbicidal effect rating, SAGPY: 9.0
[2]; [10]
  herbicidal effect rating, SAGPY: 9.0
[2]; [11]
  herbicidal effect rating, SAGPY: 9.0
[3]; [7]
  herbicidal effect rating, CYPIR: 8.5
[3]; [8]
  herbicidal effect rating, CYPIR: 9.0
[3]; [9]
  herbicidal effect rating, CYPIR: 9.0
[3]; [10]
  herbicidal effect rating, CYPIR: 9.0
[3]; [11]
  herbicidal effect rating, CYPIR: 9.0
[4]; [12]
  herbicidal effect rating ORYSAT: 7.5
[4]; [13]
  herbicidal effect rating ORYSAT: 9.0
[4]; [14]
  herbicidal effect rating ORYSAT: 9.0
[4]; [15]
  herbicidal effect rating ORYSAT: 9.0
[4]; Rate 0.5000 kg/ha, rated three to four weeks after treatment
  herbicidal effect rating ORYSAT: 9.0
[5]; [7]
  herbicidal effect rating, CYPSE: 8.0
[5]; [8]
  herbicidal effect rating, CYPSE: 8.0
[5]; [9]
  herbicidal effect rating, CYPSE: 9.0
[5]; [10]
  herbicidal effect rating, CYPSE: 9.0
[5]; [11]
  herbicidal effect rating, CYPSE: 9.0
[6]; [7]
  herbicidal effect rating, ECHORC: 8.0
[6]; [8]
  herbicidal effect rating, ECHORC: 8.5
[6]; [9]
  herbicidal effect rating, ECHORC: 9.0
[6]; [10]
  herbicidal effect rating, ECHORC: 9.0
[6]; [11]
  herbicidal effect rating, ECHORC: 9.0

## Cn1c(C(F)(F)F)cc(=O)n(-c2ccc3snc(COCOCc4ccccc4)c3c2)c1=O [Example 461, 2,4(1H,3H)-Pyrimidinedione, 3-{3-{[(benzyloxy)-methoxy]methyl}-1,2-benzisothiazol-5-yl}-1-methyl-6-(trifluoromethyl)-]
[1]; [16]
  MOOVA herbicidal rating: 7.0
[1]; [17]
  MOOVA herbicidal rating: 7.0
[1]; [18]
  MOOVA herbicidal rating: 9.0
[1]; [19]
  MOOVA herbicidal rating: 9.0
[2]; [16]
  SAGPY herbicidal rating: 2.0
[2]; [17]
  SAGPY herbicidal rating: 3.0
[2]; [18]
  SAGPY herbicidal rating: 4.0
[2]; [19]
  SAGPY herbicidal rating: 6.0
[3]; [16]
  CYPIR herbicidal rating: 6.0
[3]; [17]
  CYPIR herbicidal rating: 9.0
[3]; [18]
  CYPIR herbicidal rating: 9.0
[3]; [19]
  CYPIR herbicidal rating: 9.0
[4]; [20]
  ORYSAT herbicidal rating (rice tolerance): 5.0
[4]; [21]
  ORYSAT herbicidal rating (rice tolerance): 5.0
[4]; [22]
  ORYSAT herbicidal rating (rice tolerance): 5.0
[4]; [23]
  ORYSAT herbicidal rating (rice tolerance): 6.0
[5]; [16]
  CYPSE herbicidal rating: 0.0
[5]; [19]
  CYPSE herbicidal rating: 7.0
[6]; [16]
  ECHORC herbicidal rating: 9.0
[6]; [17]
  ECHORC herbicidal rating: 9.0
[6]; [18]
  ECHORC herbicidal rating: 9.0
[6]; [19]
  ECHORC herbicidal rating: 9.0

## Cn1c(C(F)(F)F)cc(=O)n(-c2ccc3snc(C(=O)NS(=O)(=O)CCc4ccccc4)c3c2)c1=O [Example 485, 1,2-Benzisothiazole-3-carboxamide, 5-[3,6-dihydro-3-methyl-2,6-dioxo-4-(trifluoromethyl)-1(2H)-pyrimidinyl]-N-(phenethylsulfonyl)-]
[1]; [16]
  MOOVA herbicidal rating: 4.0
[1]; [17]
  MOOVA herbicidal rating: 6.0
[1]; [18]
  MOOVA herbicidal rating: 7.0
[1]; [19]
  MOOVA herbicidal rating: 8.0
[2]; [16]
  SAGPY herbicidal rating: 0.0
[2]; [17]
  SAGPY herbicidal rating: 0.0
[2]; [18]
  SAGPY herbicidal rating: 0.0
[2]; [19]
  SAGPY herbicidal rating: 3.0
[3]; [16]
  CYPIR herbicidal rating: 2.0
[3]; [17]
  CYPIR herbicidal rating: 4.0
[3]; [18]
  CYPIR herbicidal rating: 5.0
[3]; [19]
  CYPIR herbicidal rating: 6.0
[4]; [20]
  ORYSAT herbicidal rating (rice tolerance): 0.0
[4]; [21]
  ORYSAT herbicidal rating (rice tolerance): 2.0
[4]; [22]
  ORYSAT herbicidal rating (rice tolerance): 4.0
[4]; [23]
  ORYSAT herbicidal rating (rice tolerance): 5.0
[5]; [16]
  CYPSE herbicidal rating: 0.0
[5]; [17]
  CYPSE herbicidal rating: 0.0
[6]; [16]
  ECHORC herbicidal rating: 4.0
[6]; [17]
  ECHORC herbicidal rating: 6.0
[6]; [18]
  ECHORC herbicidal rating: 6.0
[6]; [19]
  ECHORC herbicidal rating: 9.0

## Cn1c(C(F)(F)F)cc(=O)n(-c2ccc3snc(C(=O)NS(C)(=O)=O)c3c2)c1=O [Example 323, 1,2-Benzisothiazole-3-carboxamide, 5-[3,6-dihydro-3-methyl-2,6-dioxo-4-(trifluoromethyl)-1(2H)-pyrimidinyl]-N-(methylsulfonyl)-]
[1]; [24]
  herbicidal effect rating, MOOVA: 8.0
[1]; [25]
  herbicidal effect rating, MOOVA: 9.0
[1]; [26]
  herbicidal effect rating, MOOVA: 9.0
[1]; [27]
  herbicidal effect rating, MOOVA: 9.0
[2]; [24]
  herbicidal effect rating, SAGPY: 0.0
[2]; [25]
  herbicidal effect rating, SAGPY: 3.5
[2]; [26]
  herbicidal effect rating, SAGPY: 3.5
[2]; [27]
  herbicidal effect rating, SAGPY: 9.0
[3]; [24]
  herbicidal effect rating, CYPIR: 3.5
[3]; [25]
  herbicidal effect rating, CYPIR: 4.5
[3]; [26]
  herbicidal effect rating, CYPIR: 8.0
[3]; [27]
  herbicidal effect rating, CYPIR: 8.0
[4]; [12]
  herbicidal effect rating ORYSAT: 3.5
[4]; [13]
  herbicidal effect rating ORYSAT: 5.0
[4]; [14]
  herbicidal effect rating ORYSAT: 6.0
[4]; [15]
  herbicidal effect rating ORYSAT: 7.5
[5]; [24]
  herbicidal effect rating, CYPSE: 5.0
[5]; [25]
  herbicidal effect rating, CYPSE: 6.0
[5]; [26]
  herbicidal effect rating, CYPSE: 6.5
[5]; [27]
  herbicidal effect rating, CYPSE: 7.5
[6]; [24]
  herbicidal effect rating, ECHORC: 4.5
[6]; [25]
  herbicidal effect rating, ECHORC: 6.5
[6]; [26]
  herbicidal effect rating, ECHORC: 8.0
[6]; [27]
  herbicidal effect rating, ECHORC: 8.0

## CCOC(=O)C(F)(F)Oc1ccc(C)cc1-c1nsc2ccc(-n3c(=O)cc(C(F)(F)F)n(C)c3=O)cc12 [Example 559, Acetic acid, {{2-{5-[3,6-dihydro-3-methyl-2,6-dioxo-4-(trifluoromethyl)-1(2H)-pyrimidinyl]-1,2-benzisothiazol-3-yl}-p-tolyl}oxy}difluoro-, ethyl ester]
[1]; [28]
  herbicidal effect rating, MOOVA: 9.0
[1]; [29]
  herbicidal effect rating, MOOVA: 9.0
[1]; [30]
  herbicidal effect rating, MOOVA: 9.0
[1]; [31]
  herbicidal effect rating, MOOVA: 9.0
[2]; [28]
  herbicidal effect rating, SAGPY: 0.0
[2]; [29]
  herbicidal effect rating, SAGPY: 0.0
[2]; [30]
  herbicidal effect rating, SAGPY: 0.0
[2]; [31]
  herbicidal effect rating, SAGPY: 0.0
[3]; [28]
  herbicidal effect rating, CYPIR: 0.0
[3]; [29]
  herbicidal effect rating, CYPIR: 0.0
[3]; [30]
  herbicidal effect rating, CYPIR: 0.0
[3]; [31]
  herbicidal effect rating, CYPIR: 4.0
[4]; Rate 0.0620 kg/ha, rated 3-4 weeks after treatment
  herbicidal effect rating ORYSAT: 1.0
[4]; Rate 0.1250 kg/ha, rated 3-4 weeks after treatment
  herbicidal effect rating ORYSAT: 1.0
[4]; Rate 0.2500 kg/ha, rated 3-4 weeks after treatment
  herbicidal effect rating ORYSAT: 2.0
[4]; Rate 0.5000 kg/ha, rated 3-4 weeks after treatment
  herbicidal effect rating ORYSAT: 2.0
[5]; [28]
  herbicidal effect rating, CYPSE: 0.0
[5]; [29]
  herbicidal effect rating, CYPSE: 0.0
[5]; [30]
  herbicidal effect rating, CYPSE: 9.0
[5]; [31]
  herbicidal effect rating, CYPSE: 9.0
[6]; [28]
  herbicidal effect rating, ECHORC: 3.0
[6]; [29]
  herbicidal effect rating, ECHORC: 3.0
[6]; [30]
  herbicidal effect rating, ECHORC: 6.0
[6]; [31]
  herbicidal effect rating, ECHORC: 9.0

Reference: patent EP0908457B1, “3-(1,2-benzisothiazol- and isoxazol-5-Y1)-2,4(1H,3H)-pyrimidinedione or thione and 3-(1,2-benzisothiazol- and isoxazol-5-y1)-4(3H)-pyrimidinone or thione herbicidal agents” (BASF AKTIENGESELLSCHAFT, priority 1997, dated 1999)
